Reference: US7175981B2, “Method of diagnosing stage or aggressiveness of breast and prostate cancer based on levels of fatty acid binding proteins” (The United States of America as represented by the …, priority 1998, dated 2007)
“Also recorded” adds a separate entry of the source. Like-named read-outs stand apart in the source and are kept apart here.

How the values were obtained:
[1] = test system: wild type MCF-7 human breast cancer cells; test: MCF-7 proliferation assay, wild type cells (cytofluor); format: cell-based; details: WT MCF-7 breast cancer cells
Description: (§1) Tables 1 and 2 show the concentrations required for IC50 inhibition in cultures of wild type and multi-drug resistant MCF-7 human breast cancer cells, respectively. These tables show polyoxotungstates used on MCF-7 proliferation assay.

[2] = test system: multi-drug resistant MCF-7 ADR human breast cancer cells; test: MCF-7 proliferation assay, multi-drug resistant cells (cytofluor); format: cell-based; details: ADR MCF-7 breast cancer cells
Description: as §1

E-FABP [3] = test: RT-PCR of E-FABP expression in MCF-7 cells grown with drug; format: cell-based, human; details: 1 uM, 48 hr
Description: (§2) FIGS. 17a and 17b are graphs showing MCF-7 cells grown in the presence of 1 uM HPA-Na for 48 hr and RNA isolated for FABP measurement.
(§3) For RT-PCR, equal amounts of RNA were used for the reverse transcriptase reaction to make cDNA. The cDNA was then used for the PCR reaction using specific primers for the different fatty acid binding proteins. Also, PCR was performed for genes such as Actin whose level stays generally the same in all the samples. The PCR products were resolved on agarose gel and the picture under UV was saved in the computer as a TIFF file. Using the NIH Image Program 1.6–1, gel optical units were digitized and obtained for each band observed. The values of the FABP PCR fragments were therefore normalized to the Actin values for each sample. In the figures, the data is represented in Optical Density Units versus the FABP and cell type from Breast and Prostate tissues.
(§4) The RNA was isolated using the Trizol method and RT-PCR analysis of the proteins was performed by using primers specific for each FABP. Equal amount of RNA was used for RT-PCR and PCR master mix was used to avoid any handling errors. […] The method of quantitation of PCR product was as follows: for internal quantitation control actin primers was used, all the gels were scanned in a gel scanner and digitized using the NIH-Image program for quantitation. […]

A-FABP [4] = test: RT-PCR of A-FABP expression in MCF-7 cells grown with drug; format: cell-based, human; details: 1 uM, 48 hr
Description: as §2, §3, §4

brain-FABP = test: RT-PCR of brain-FABP expression in MCF-7 cells grown with drug; format: cell-based, human; details: 1 uM, 48 hr
Description: as §2, §3, §4

A-FABP [5] = test: RT-PCR of A-FABP expression in LNCAP cells grown with drug; format: cell-based, human; details: 1 uM, 48 hr, listed as HPA-Na
Description: (§5) FIG. 18 is a graph showing LNCAP cells grown in the presence of 1 uM HPA-Na for 48 hr. At that time, cells were harvested, RNA prepared by the method of TRIZOL, and levels of various FABPs were measured by RT-PCR.
as §3
as §4, with “FABP.” for “FABP. Equal amount of RNA was used for RT-PCR and PCR master mix was used to avoid any handling errors.”

I-FABP = test: RT-PCR of I-FABP expression in LNCAP cells grown with drug; format: cell-based, human; details: in the presence of drug, listed as HPA-Na
Description: as §5, §3
as §4, with “FABP.” for “FABP. Equal amount of RNA was used for RT-PCR and PCR master mix was used to avoid any handling errors.”

E-FABP [6] = test: RT-PCR of E-FABP expression in LNCAP cells grown with drug; format: cell-based, human; details: 1 uM
Description: as §5, §3
as §4, with “FABP.” for “FABP. Equal amount of RNA was used for RT-PCR and PCR master mix was used to avoid any handling errors.”

[7] = Toxicity in mice (body weight, necropsy); format: in vivo; details: subcutaneously, weekly for 10 weeks
Description: We have identified a class of heteropolyanions that have anticancer activity. This class consists of metal ion derivatives of polyoxotungstate, hereinafter referred to as HPA. These heteropolyanions (HPA) are synthesized by methods outlined in Heteropoly and Isopoly Oxometalates, Michael Thor Pope, Springer Verlag, Berlin, Germany 1983. They are water soluble and stable at room temperature and are effective at very low concentrations (1 μM) in cell cultures. […] Oral and intramuscular administration were also tested. Drugs were dissolved in aqueous solutions for administration. Preferred HPA drugs are HPA-Na and HPA-Sm.

LNCAP prostate cells = test: Growth of prostate cancer cells (Cytofluor); format: cell-based, human; details: prostate (and breast) cancer cells
[8] = experiment 1, read-out: IC50 (Exp. 1)
[9] = experiment 2, read-out: IC50 (Exp. #2)

For K12[TmP5W30O110] · nH2O, which IC50 [1, 8] is on record?
The IC50 was 0.25 µM.

What about the IC50 [1, 9] of the same substance?
Its IC50 is 10 µM.

And the IC50 [2, 8]?
Its IC50 is 4 µM.

And the IC50 [2, 9]?
The IC50 was 6 µM.

For K12[DyP5W30O110] · nH2O, which IC50 [1, 8] is on record?
The IC50 was 4.3 µM.

What about the IC50 [1, 9] of the same substance?
The IC50 was 5 µM.

And the IC50 [2, 8]?
Its IC50 is 3.8 µM.

What about the IC50 [2, 9] of the same substance?
The IC50 was 2.3 µM.

For K12[SmP5W30O110] · nH2O, which IC50 [1, 8] is on record?
Its IC50 is 0.5 µM.

What about the IC50 [1, 9] of the same substance?
Its IC50 is 2.5 µM.

What about the IC50 [2, 8] of the same substance?
Its IC50 is 3.8 µM.

And the IC50 [2, 9]?
Its IC50 is 4.1 µM.

Which IC50 [1, 8] does the source give for K12[YbP5W30O110] · nH2O here?
Its IC50 is 3.8 µM.

And the IC50 [1, 9]?
Its IC50 is 3.7 µM.

And the IC50 [2, 8]?
The IC50 was 5 µM.

And the IC50 [2, 9]?
Its IC50 is 6.3 µM.

What does the source list for K12.5Na1.5[NaP5W30O110] · nH2O?
IC50 [1, 8]: 3.8 µM; IC50 [1, 9]: 3.5 µM; IC50 [2, 9]: 2.1 µM; change in level of E-FABP (E-FABP [3]): dramatically increased; change in level of A-FABP (A-FABP [4]): dramatically increased; change in level of brain-FABP (brain-FABP): decreased significantly; change in level of A-FABP (A-FABP [5]): increased the levels of A-FABP in LNCAP to a level similar to the normal values; also recorded: increasing A-FABP; also recorded: markedly elevated; change in level of I-FABP (I-FABP): decreasing I-FABP; also recorded: decrease; change in level of E-FABP (E-FABP [6]): altered in a similar manner; toxicity in mice (weights, necropsy) [7]: no indications of toxicity was observed; effect on proliferation of cancer cells (LNCAP prostate cells): blocked

Which results are given for K12[TbP5W30O110] · nH2O?
IC50 [1, 8]: 1 µM; IC50 [1, 9]: 8 µM; IC50 [2, 8]: 3.5 µM; IC50 [2, 9]: 4.9 µM

Which IC50 [1, 8] does the source give for K12[HoP5W30O110] · nH2O here?
The IC50 was 3 µM.

What about the IC50 [1, 9] of the same substance?
The IC50 was 4.5 µM.

And the IC50 [2, 8]?
The IC50 was 0.25 µM.

What about the IC50 [2, 9] of the same substance?
Its IC50 is 4 µM.

What does the source list for K12[CeP5W30O110] · nH2O?
IC50 [1, 8]: 4.3 µM; IC50 [1, 9]: 5 µM; IC50 [2, 8]: 3.8 µM; IC50 [2, 9]: 3 µM

Which results are given for K12[GdP5W30O110] · nH2O?
IC50 [1, 8]: 2 µM; IC50 [1, 9]: 8 µM; IC50 [2, 8]: 4.3 µM; IC50 [2, 9]: 4.6 µM

What does the source list for K13[CaP5W30O110] · nH2O?
IC50 [1, 8]: 4.5 µM; IC50 [1, 9]: 5 µM; IC50 [2, 8]: 3.8 µM; IC50 [2, 9]: 6.8 µM

With K12[ErP5W30O110] · nH2O as the substance, how does the IC50 [1, 8] read?
The IC50 was 4.3 µM.

And the IC50 [1, 9]?
The IC50 was 6 µM.

What about the IC50 [2, 8] of the same substance?
The IC50 was 4 µM.

What about the IC50 [2, 9] of the same substance?
Its IC50 is 1 µM.

For K12[BiP5W30O110] · nH2O, which IC50 [1, 9] is on record?
The IC50 was 5 µM.

What about the IC50 [2, 8] of the same substance?
Its IC50 is 3 µM.

And the IC50 [2, 9]?
Its IC50 is 2.5 µM.

What does the source list for K12[UP5W30O110] · nH2O?
IC50 [1, 8]: 1 µM; IC50 [1, 9]: 10 µM; IC50 [2, 8]: 5.8 µM; IC50 [2, 9]: 4.8 µM

Which results are given for K12[LuP5W30O110] · nH2O?
IC50 [1, 8]: 1 µM; IC50 [1, 9]: 5 µM; IC50 [2, 8]: 4.5 µM; IC50 [2, 9]: 5.5 µM

Which IC50 [1, 9] does the source give for K12[EuP5W30O110] · nH2O here?
The IC50 was 4.5 µM.

And the IC50 [2, 8]?
Its IC50 is 0.25 µM.

What about the IC50 [2, 9] of the same substance?
Its IC50 is 3.8 µM.
